A short description of data set [1]: Liver microsomal metabolic stability, human liver microsomes (HLM). The conditions noted are these: for half-life at 1 μM: human, liver microsomes. (Microsomes from liver hold many membrane-bound enzymes, among them those of drug oxidation.)
In data set [2] the test system is Ub-PCNA levels in the nucleus of ES2 cells (USP1 activity). Put plainly: ES2 Ub-PCNA immunofluorescence (IF) assay. The data set is classed as cell-based. The following applies: ES2 cells, 3 hours, Ub-PCNA immunofluorescence, read-out: USP1 IC50 (Ub-PCNA). In a few lines:
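AC50 derived from percent Ub-PCNA-positive nuclei, positivity set by a 95% cutoff from untreated-well intensities. Readout by imaging immunofluorescence (anti-Ub-PCNA, DAPI nuclear mask) after methanol fixation. Compound exposure: 3 h at 37° C, 0.3% DMSO final, on cells plated overnight.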

Data set [3] concerns the target USP1/UAF1 enzyme (Homo sapiens, UniProt O94782). The data set can be described thus: USP1/UAF1 deubiquitination assay (ubiquitin-rhodamine 110 substrate). It counts as biochemical. The following applies: read-out: USP1 IC50 (Ub-Rho). In a few lines:
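Cleavage of 150 nM ubiquitin-rhodamine 110 by 0.05 nM USP1/UAF1 was followed as fluorescence (Ex480/Em540, kinetic, 30 min) in Tris-HCl pH 7.8 buffer with EDTA, BSA, DTT and Tween-20. Compounds, top 10 μM, were preincubated with enzyme 10 min; % inhibition against no-enzyme and DMSO wells gave four-parameter IC50s.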

A short description of data set [4]: ADME solubility determination in PBS at pH 2.0 and pH 7.4. The data set is classed as physicochemical. The following applies: for solubility at 24 h: phosphate buffered saline, 25 °C, thermodynamic from solid. In a few lines:
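Solubility was read by LC-MS/MS on centrifuged supernatants, calibrated to a known-concentration standard and corrected for dilution. Compound, dried down from 10 mM DMSO stock, was equilibrated 24 h at 25° C with shaking in PBS at pH 2.0 or pH 7.4.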

The nature of data set [5]: Liver microsomal metabolic stability, rat liver microsomes (RLM). The following applies: 1 μM compound, 1 mg/mL microsomes, NADPH; for half-life at 1 μM: rat, liver microsomes, t1/2 (min) in RLM.
Setting [6] is: pH 2, aqueous buffer, PBS pH 2.0, 25° C., read-out: Solubility at pH 2.0.
Where [7] appears, read: pH 7.4, aqueous buffer, PBS pH 7.4, 25° C., read-out: Solubility at pH 7.4.

These results are taken from patent US20230219965A1 (KSQ Therapeutics, Inc., priority 2020, published 2023).

Each structure is given as a SMILES string. Where two headings read alike, the source gives them in different places.

One may read the half-life as how long it takes for the measured level to halve. A lower half-life goes with rapid decline. In general, IC50 refers to the concentration that gives 50% inhibition. As a reminder, the solubility is the concentration that dissolves in the medium under given conditions.

Sequence of USP1/UAF1 enzyme (O94782 whole entry): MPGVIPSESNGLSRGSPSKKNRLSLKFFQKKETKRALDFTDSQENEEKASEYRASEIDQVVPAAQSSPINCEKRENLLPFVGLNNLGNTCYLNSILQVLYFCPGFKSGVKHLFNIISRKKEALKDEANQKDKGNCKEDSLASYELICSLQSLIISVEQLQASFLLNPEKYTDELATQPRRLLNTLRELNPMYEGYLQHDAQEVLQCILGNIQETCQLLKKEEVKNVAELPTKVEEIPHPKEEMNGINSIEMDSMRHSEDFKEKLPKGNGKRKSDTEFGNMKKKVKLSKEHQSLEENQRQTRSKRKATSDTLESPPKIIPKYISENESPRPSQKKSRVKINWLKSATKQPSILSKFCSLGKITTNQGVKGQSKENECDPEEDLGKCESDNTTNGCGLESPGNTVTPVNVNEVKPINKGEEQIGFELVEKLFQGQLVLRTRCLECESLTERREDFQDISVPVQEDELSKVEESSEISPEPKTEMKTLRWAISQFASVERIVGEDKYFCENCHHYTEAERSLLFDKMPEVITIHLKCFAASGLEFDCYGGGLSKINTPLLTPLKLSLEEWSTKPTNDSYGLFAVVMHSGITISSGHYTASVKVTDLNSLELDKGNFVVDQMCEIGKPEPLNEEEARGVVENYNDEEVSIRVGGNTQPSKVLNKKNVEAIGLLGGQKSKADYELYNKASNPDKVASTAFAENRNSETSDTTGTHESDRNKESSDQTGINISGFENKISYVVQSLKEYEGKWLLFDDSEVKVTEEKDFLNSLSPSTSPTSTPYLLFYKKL
Sequence of USP1/UAF1 enzyme (Q8TAF3 whole entry partner): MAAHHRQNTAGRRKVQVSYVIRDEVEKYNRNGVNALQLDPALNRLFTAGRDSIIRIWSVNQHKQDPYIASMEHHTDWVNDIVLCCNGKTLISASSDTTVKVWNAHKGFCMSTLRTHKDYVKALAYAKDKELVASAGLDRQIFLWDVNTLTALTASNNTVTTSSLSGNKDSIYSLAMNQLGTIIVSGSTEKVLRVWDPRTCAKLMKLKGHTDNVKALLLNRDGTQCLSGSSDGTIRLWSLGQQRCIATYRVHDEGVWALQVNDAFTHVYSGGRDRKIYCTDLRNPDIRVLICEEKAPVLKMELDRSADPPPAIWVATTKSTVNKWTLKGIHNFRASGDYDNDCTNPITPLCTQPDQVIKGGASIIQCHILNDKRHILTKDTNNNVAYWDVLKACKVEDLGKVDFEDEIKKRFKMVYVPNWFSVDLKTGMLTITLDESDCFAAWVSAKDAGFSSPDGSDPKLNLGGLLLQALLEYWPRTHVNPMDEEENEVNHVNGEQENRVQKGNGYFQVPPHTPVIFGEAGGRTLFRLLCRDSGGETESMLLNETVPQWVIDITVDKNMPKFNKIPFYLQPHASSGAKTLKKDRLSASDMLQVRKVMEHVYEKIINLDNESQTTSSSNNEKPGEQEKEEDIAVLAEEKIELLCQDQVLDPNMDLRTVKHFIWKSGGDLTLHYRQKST

Turning to `COc1c(CN2C(=O)CCn3nc(-c4c(OC(F)F)ncnc4C4CC4)nc32)ccc(-c2nc(C(F)(F)F)cn2C(C)C)c1F` [Example 365, 2-(4-cyclopropyl-6-(difluoromethoxy)pyrimidin-5-yl)-4-(3-fluoro-4-(1-isopropyl-4-(trifluoromethyl)-1H-imidazol-2-yl)-2-methoxybenzyl)-6,7-dihydro-[1,2,4]triazolo[1,5-a]pyrimidin-5(4H)-one], the half-life at 1 μM in data set [1] and in data set [5] was over 25 min each time. The IC50 was under 100 nM in data set [2] (Homo sapiens, ES-2) and under 100 nM in data set [3]. Moreover, the solubility at 24 h in data set [4] (setting [6]) and in data set [4] (setting [7]) was under 10 µM each time.
For the compound `COc1ncnc(C2CC2)c1-c1cc2n(n1)CCC(=O)N2Cc1ccc(-n2nc(C(F)(F)F)cc2OC)cc1` [Example 80], the half-life at 1 μM in data set [1] and in data set [5] was over 25 min each time. The IC50 is 100 to 500 nM in data set [2] (Homo sapiens, ES-2) and under 100 nM in data set [3]. Moreover, the solubility at 24 h in data set [4] (setting [6]) and in data set [4] (setting [7]) was under 10 µM in each case.
Turning to `Cc1cc(C(F)(F)F)nn1-c1ccc(NC2CCCn3nc(-c4c(Cl)cnn4C(C)C)cc32)cc1` (stereo not drawn) [Example 244, 2-(4-chloro-1-isopropyl-1H-pyrazol-5-yl)-N-(4-(5-methyl-3-(trifluoromethyl)-1H-pyrazol-1-yl)phenyl)-4,5,6,7-tetrahydropyrazolo[1,5-a]pyridin-4-amine], the half-life at 1 μM in data set [1] and in data set [5] was over 25 min in each case. Further, the IC50 in data set [2] (Homo sapiens, ES-2) is under 100 nM; in data set [3], under 100 nM. Besides, the solubility at 24 h in data set [4] (setting [6]) and in data set [4] (setting [7]) was under 10 µM in each case.
As to `CC(C)n1cc(C(F)(F)F)nc1-c1ccc(CN2C(=O)CCn3nc(-c4c(Cl)cnn4C(C)C)cc32)cc1F` [Example 20, 2-(4-chloro-1-isopropyl-1H-pyrazol-5-yl)-4-(3-fluoro-4-(1-isopropyl-4-(trifluoromethyl)-1H-imidazol-2-yl)benzyl)-6,7-dihydropyrazolo[1,5-a]pyrimidin-5(4H)-one], the half-life at 1 μM in data set [1] and in data set [5] was over 25 min each time. The IC50 in data set [2] (Homo sapiens, ES-2) is under 100 nM; in data set [3], under 100 nM. Besides, the solubility at 24 h in data set [4] (setting [6]) and in data set [4] (setting [7]) was under 10 µM each time.
`COc1ncnc(C2CC2)c1-c1nc2n(n1)CCC(=O)N2[C@H](C)c1ccc(-n2nc(C(F)(F)F)cc2C)c(F)c1` [Example 204]: the half-life at 1 μM in data set [1] and in data set [5] was over 25 min in each case. Further, the IC50 in data set [2] (Homo sapiens, ES-2) is under 100 nM; in data set [3], under 100 nM. In addition, the solubility at 24 h in data set [4] (setting [6]) and in data set [4] (setting [7]) was at least 10 µM each time.
Consider `Cc1cnn(C(C)C)c1-c1nc2n(n1)CCCN2Cc1ccc(-c2nc(C(F)(F)F)cn2C)cc1` [Example 221, 2-(1-isopropyl-4-methyl-1H-pyrazol-5-yl)-4-(4-(1-methyl-4-(trifluoromethyl)-1H-imidazol-2-yl)benzyl)-4,5,6,7-tetrahydro-[1,2,4]triazolo[1,5-α]pyrimidine], for which the half-life at 1 μM in data set [1] and in data set [5] was under 25 min throughout. Besides, the IC50 is under 100 nM in data set [2] (Homo sapiens, ES-2) and under 100 nM in data set [3]. Moreover, the solubility at 24 h in data set [4] (setting [6]) and in data set [4] (setting [7]) was at least 10 µM throughout.
In the case of `COc1ncnc(C2CC2)c1-c1cc2n(n1)CCC(=O)N2Cc1ccc(-c2nc(C(F)(F)F)cn2C)c(F)c1` [Example 2, 2-(4-cyclopropyl-6-methoxypyrimidin-5-yl)-4-(3-fluoro-4-(1-methyl-4-(trifluoromethyl)-1H-imidazol-2-yl)benzyl)-6,7-dihydropyrazolo[1,5-a]pyrimidin-5(4H)-one], the half-life at 1 μM in data set [1] and in data set [5] was over 25 min each time. For the same compound, the IC50 is 100 to 500 nM in data set [2] (Homo sapiens, ES-2) and under 100 nM in data set [3]. Besides, the solubility at 24 h in data set [4] (setting [6]) and in data set [4] (setting [7]) was under 10 µM each time.
On to `CCn1cc(C(F)(F)F)nc1-c1ccc(CN2CC(O)Cn3nc(-c4c(Cl)cnn4C(C)C)cc32)cc1F` (stereo not drawn) [Example 267, 2-(4-chloro-1-isopropyl-1H-pyrazol-5-yl)-4-(4-(1-ethyl-4-(trifluoromethyl)-1H-imidazol-2-yl)-3-fluorobenzyl)-4,5,6,7-tetrahydropyrazolo[1,5-α]pyrimidin-6-ol], for which, in data set [1] (human liver microsomes, 1 μM compound, 1 mg/mL microsomes, NADPH), the “t1/2 (min) in HLM” value is given as “+ (“+” indicates less than 25 minutes)”. For the same compound, the IC50 in data set [2] and in data set [3] was under 100 nM each time. The “Solubility at pH 2.0 (μM)” value in data set [4] (PBS pH 2.0, 25° C., 24 hours) was “+ (“+” indicates less than 10 μM)”. Also, in data set [4] (PBS pH 7.4, 25° C., 24 hours), the “Solubility at pH 7.4 (μM)” value is on record as “+ (“+” indicates less than 10 μM)”. The “t1/2 (min) in RLM” value in data set [5] is on record as “+ (“+” indicates less than 25 minutes)”.
Consider `COc1ncnc(C2CC2)c1-c1cc2n(n1)CCC(=O)N2Cc1ccc(-c2nc(C(F)(F)F)cn2C)cc1` [Example 1, 2-(4-cyclopropyl-6-methoxypyrimidin-5-yl)-4-(4-(1-methyl-4-(trifluoromethyl)-1H-imidazol-2-yl)benzyl)-6,7-dihydropyrazolo[1,5-α]pyrimidin-5(4H)-one], for which the half-life at 1 μM in data set [1] and in data set [5] was over 25 min in each case. In addition, the IC50 in data set [2] (Homo sapiens, ES-2) is 100 to 500 nM; in data set [3], under 100 nM. Further, the solubility at 24 h in data set [4] (setting [6]) was at least 10 µM; in data set [4] (setting [7]) it was under 10 µM.
On to `COc1ncnc(C2CC2)c1-c1nc2n(n1)CCC(=O)N2[C@H](C)c1ccc(-c2nc(C(F)(F)F)cn2C(C)C)cc1` [Example 189], for which the half-life at 1 μM in data set [1] and in data set [5] was over 25 min in each case. The IC50 in data set [2] (Homo sapiens, ES-2) was under 100 nM; in data set [3], under 100 nM. Besides, the solubility at 24 h in data set [4] (setting [6]) and in data set [4] (setting [7]) was at least 10 µM in each case.
For `CCn1cc(C(F)(F)F)nc1-c1ccc(OC2CCCn3nc(-c4c(Cl)cnn4C(C)C)cc32)cc1F` (stereo not drawn) [Example 262], the half-life at 1 μM in data set [1] and in data set [5] was over 25 min throughout. For the same compound, the IC50 in data set [2] (Homo sapiens, ES-2) was 100 to 500 nM; in data set [3], under 100 nM. Further, the solubility at 24 h in data set [4] (setting [6]) and in data set [4] (setting [7]) was under 10 µM throughout.
In the case of `CC(C)n1ncc(Cl)c1-c1cc2n(n1)CCC(=O)N2Cc1ccc(-c2ncccc2OC2CC2)c(Cl)c1` [Example 290], the half-life at 1 μM in data set [1] and in data set [5] was under 25 min each time. Further, the IC50 in data set [2] (Homo sapiens, ES-2) is 100 to 500 nM; in data set [3], under 100 nM. The solubility at 24 h in data set [4] (setting [6]) was at least 10 µM; in data set [4] (setting [7]), under 10 µM.
On to `CCn1cc(C(F)(F)F)nc1-c1ccc(N[C@H]2CCCn3nc(-c4c(Cl)cnn4C(C)C)cc32)cc1` (single isomer, unassigned) [Example 239], for which the half-life at 1 μM in data set [1] and in data set [5] was over 25 min each time. The IC50 in data set [2] (Homo sapiens, ES-2) was under 100 nM; in data set [3], under 100 nM. For the same compound, the solubility at 24 h in data set [4] (setting [6]) and in data set [4] (setting [7]) was under 10 µM throughout.
Regarding `CCn1cc(C(F)(F)F)nc1-c1ccc([C@@H](C)n2c(=O)ccn3nc(-c4c(OC)ncnc4C4CC4)nc23)cc1` [Example 338, (R)-2-(4-cyclopropyl-6-methoxypyrimidin-5-yl)-4-(1-(4-(1-ethyl-4-(trifluoromethyl)-1H-imidazol-2-yl)phenyl)ethyl)-[1,2,4]triazolo[1,5-a]pyrimidin-5(4H)-one], the half-life at 1 μM in data set [1] was over 25 min; in data set [5], under 25 min. Also, the IC50 in data set [2] (Homo sapiens, ES-2) is under 100 nM; in data set [3] it was under 100 nM. The solubility at 24 h in data set [4] (setting [6]) was at least 10 µM; in data set [4] (setting [7]), under 10 µM.
In the case of `CCn1cc(C(F)(F)F)nc1-c1ccc(Cn2c(=O)ccn3nc(-c4c(OC)ncnc4C4CC4)nc23)cc1` [Example 337, 2-(4-cyclopropyl-6-methoxypyrimidin-5-yl)-4-(4-(1-ethyl-4-(trifluoromethyl)-1H-imidazol-2-yl)benzyl)-[1,2,4]triazolo[1,5-α]pyrimidin-5(4H)-one], the half-life at 1 μM in data set [1] and in data set [5] was over 25 min in each case. The IC50 is under 100 nM in data set [2] (Homo sapiens, ES-2) and under 100 nM in data set [3]. In addition, the solubility at 24 h in data set [4] (setting [6]) was at least 10 µM; in data set [4] (setting [7]), under 10 µM.
With `COc1ncnc(C2CC2)c1-c1cc2n(n1)CCCN2Cc1ccc(-c2nc(C(F)(F)F)cn2C)cc1` [Example 24, 2-(4-cyclopropyl-6-methoxypyrimidin-5-yl)-4-(4-(1-methyl-4-(trifluoromethyl)-1H-imidazol-2-yl)benzyl)-4,5,6,7-tetrahydropyrazolo[1,5-α]pyrimidine], the half-life at 1 μM in data set [1] and in data set [5] was under 25 min each time. Besides, the IC50 in data set [2] (Homo sapiens, ES-2) was under 100 nM; in data set [3], under 100 nM. The solubility at 24 h in data set [4] (setting [6]) and in data set [4] (setting [7]) was at least 10 µM in each case.
